The subject of data set [1] is Helicobacter pylori. Description: Agar dilution test (inhibition of growth in vitro on agar plates). The format is cell-based. The note with it: 96 h, Columbia agar (Oxoid), growth period of 4 days, read-out: approx. MIC50. From the text:
Agar Dilution Test (Determination of the Inhibition of Growth In Vitro on Agar Plates)
The compounds of the formula I were investigated for their activity against Helicobacter pylori in accordance with the methodology described by Tomoyuki Iwahi et al. (Antimicrobial Agents and Chemotherapy, 1991, 490-496) using Columbia agar (Oxoid) over a growth period of 4 days.

Data set [2] relates to Helicobacter pylori. In words: Inhibition of growth in vitro in liquid culture (NanoOrange fluorescence). Format: cell-based. The note with it: liquid culture BHI/6% FCS medium, 24 hours incubation at 37° C., microaerobic, 1% DMSO. From the text: Determination of the Inhibition of Growth In Vitro in Liquid Culture
The principle of the technique is based on the detection of the multiplication of, for example, Helicobacter pylori in liquid culture using BHI/6% FCS medium. The method ensures linear fluorescence increase in the range from 3×10^6 to 3×10^8 cells.
The bacterial culture was distributed with an initial density of 1-3×10^6 microbes/ml in a 96-well MTP in […]. The test substances in a concentration of […] in a final concentration of 1% DMSO were added to these minicultures. These MTPs were then incubated under microaerobic conditions (Anaerokult, Merck) and with shaking at 37° C. for 24 hours. Following the 24-hour incubation, the minicultures were transferred to filter MTPs and washed twice with isotonic buffer (filtered off with suction, taken up, shaken) and finally were taken up in double-distilled water and shaken, and an aliquot was transferred to a new MTP. This aliquot was admixed with the fluorescent dye NanoOrange (Molecular Probes) in accordance with the manufacturer's instructions. Development of protein detection took place at 90° C. in a pressure-secured sandwich technique. After the plates had cooled, the fluorescence was measured on a plate reader at 549 nm. […] This calculation was made using origin, sigmoidal curve adaptation by means of the ‘logistic’ algorithm.

In data set [3] the test system is Helicobacter pylori. In words: Helicobacter pylori eradication rate in vivo (urease test on antrum tissue). The note with it: infected gerbils; 50 mg/kg by tube, 3 × daily for 4 days; urease test four weeks after last treatment. As for the experimental part:
Determination of the Helicobacter pylori Eradication Rate In Vivo
Gerbils were infected on days 1, 3, and 5 with a suspension containing 10^8-10^9 Helicobacter pylori bacteria per animal. […] Beginning on day 36, the gerbils were treated on four successive days—three times daily at 07.30, 11.30, and 15.00 hours—with a placebo or the test substance, using a tube. Four weeks after the last treatment, the gerbils were sacrificed using CO2. A tissue sample of the antrum was introduced into the urease test solution and incubated at 37° C. for 24 hours. Changes in color of the solution from yellow to violet, which resulted from the increase in pH caused by the formation of NH3 from the urease, were detected. The eradication rate was calculated as the percentage of animals whose stomach tissue sample gave a negative urease test.
Conditions Under which the Animals were Kept:
Groups of 5-10 gerbils per cage (type IV Macrolon cage) were kept at an ambient temperature of 23±2° C. and a relative humidity of 50±10%. They were fed ad libitum with NAFAG feed No. 9439 for rats and mice (NAFAG AG, CH-2900, Gossau, Switzerland) and had free access to mains water during the experiment.
The substances administered are referenced in table C below using numbers which correspond to the numbers of the compounds in the examples.

≈ marks a conversion by molar mass, not a printed value.

A word on the melting point: it is the temperature of the solid-liquid transition. For orientation: MIC50 means the lowest concentration that inhibits either 50% of growth or 50% of the strains tested, depending on the study. Usually IC50 stands for the concentration that inhibits the measured activity by half. Read a high IC50 as a need for much substance. `Cc1nc(C)c(Cl)c(NCc2ccc(OCCn3c([N+](=O)[O-])cnc3C)cn2)n1` [Compound 4, (5-Chloro-2,6-dimethylpyrimidin-4-yl){5-[2-(2-methyl-5-nitroimidazol-1-yl)ethoxy]pyridine-2-ylmethyl}amine]: the melting point fell in the range of 181.5 to 183.5 °C. In addition, the MIC50 in the data set with Helicobacter pylori [1] is roughly 0.1 µg/mL (≈ 0.239 µM). The IC50 in the data set with Helicobacter pylori [2] came out at 40 nM.
On the same counts, the results for `COc1c(OCCn2c([N+](=O)[O-])cnc2C)cnc(CNc2nc(C)nc(C)c2Cl)c1C` [Compound 2, (5-Chloro-2,6-dimethylpyrimidin-4-yl){4-methoxy-3-methyl-5-[2-(2-methyl-5-nitroimidazol-1-yl)ethoxy]pyridin-2-ylmethyl}amine] are 182.5 to 184 °C, roughly 0.1 µg/mL (≈ 0.216 µM) and 64 nM.
In turn, `Cc1nc(C)c(Cl)c(NCc2ccc(OCCn3c([N+](=O)[O-])cnc3C)c(Cl)n2)n1` [Compound 8, (5-Chloro-2,6-dimethylpyrimidin-4-yl)-{6-chloro-5-[2-(2-methyl-5-nitroimidazol-1-yl)ethoxy]pyridin-2-ylmethyl}amine] displayed a melting point of 206 to 208 °C.
Still for that read-out and setting: then `Cc1nc(C)c(Cl)c(NCc2ccc(Oc3ccc4ncc([N+](=O)[O-])n4n3)c(Cl)n2)n1` [Compound 7, (5-Chloro-2,6-dimethylpyrimidin-4-yl)-[6-chloro-5-(3-nitroimidazo[1,2-b]pyridazin-6-yloxy)pyridin-2-ylmethyl]amine], with 184 to 186 °C.
`Cc1nc(C)c(Cl)c(NCc2ccc(Oc3ccc4ncc([N+](=O)[O-])n4n3)cn2)n1` [Compound 3, (5-Chloro-2,6dimethylpyrimidin-4-yl){5-(3-nitroimidazo[1,2-b]pyridazin-6-yloxy)pyridin-2-ylmethyl}amine] returned a melting point of 194 to 198 °C. Moreover, in the data set with Helicobacter pylori [3], the Eradication rate stood at 100%. In addition, the MIC50 in the data set with Helicobacter pylori [1] was roughly 0.1 µg/mL (≈ 0.234 µM). In the data set with Helicobacter pylori [2], this compound returned an IC50 of 35 nM.
`Cc1nc(C)c(Cl)c(CNCc2ccc(Oc3ccc4ncc([N+](=O)[O-])n4n3)cn2)n1` [Compound 9, (5-Chloro-2,6-dimethylpyrimidin-4-yl)methyl-[5-(3-nitroimidazo[1,2-b]pyridazin-6-yloxy)pyridin-2-ylmethyl]amine] came in with a melting point of 183 to 184 °C.
Still for that read-out and setting: then `Cc1nc(C)c(Cl)c(NCc2ccc(Oc3ccc4ncc([N+](=O)[O-])n4n3)cn2)n1.Cl.Cl`, with 280 to 281 °C.
The same measure, in the same setting: then `Cc1nc(C)c(Cl)c(NCc2ccc(Oc3ccc4ncc([N+](=O)[O-])n4n3)cn2)n1.O=S(=O)(O)O`, with 233 to 234 °C.
`COc1c(Oc2ccc3ncc([N+](=O)[O-])n3n2)cnc(CNc2nc(C)nc(C)c2Cl)c1C` [Compound 1, (5-Chloro-2,6-dimethylpyrimidin-4-yl)[4-methoxy-3-methyl-5-(3-nitroimidazo[1,2-b]pyridazin-6-yloxy)pyridin-2-ylmethyl]amine] displayed a melting point of 229.5 to 231.5 °C. The MIC50 in the data set with Helicobacter pylori [1] was roughly 0.1 µg/mL (≈ 0.212 µM). Also, inhibition with Helicobacter pylori [2] was half-maximal at 12 nM (IC50).

The record behind these values is patent US20040158066A1, “Novel pyridylmethylaminopyrimidines” (priority 2001, published 2004).
